# Measurements from US20190201409A1, “COMBINATION THERAPY” (MEI Pharma, Inc., priority 2016, published 2019).
# Experiments:
# Assay type in all cases: cell-based
# DOHH-2 cells = assay: ATPLite growth inhibition assay, single agent and combination (Loewe synergy); details: single agent
# Method: (§1) The activity of compound I was examined in combination with PCI-32765 (ibrutinib), ABT-199 (venetoclax) and EPZ-6438 (Tazemetostat) across a panel of 8 DLBCL cell lines indicated below (7 GCB subtype cell lines and 1 ABC subtype cell line).
# (§2) The effect of test compounds and combinations on growth inhibition as a measure of cell viability was determined in an ATPLite assay. The endpoint readout of the assay was based upon quantitation of ATP as an indicator of viable cells.
# (§3) Cells were thawed from a liquid nitrogen preserved state. Once cells were expanded and divided at their expected doubling times, screening begins. Cells were seeded in growth media in black 384-well tissue culture treated plates at 500 cells per well (except where noted in Analyzer). Cells were equilibrated in assay plates via centrifugation and placed in incubators attached to the Dosing Modules at 37° C. for 24 hours before treatment. […] These Tzero (T0) plates were read using ultra-sensitive luminescence on Envision Plate Readers. Treated assay plates were incubated with compound for 72 hours. All data points were collected via automated processes; quality controlled; and analyzed using Horizon Discovery proprietary software. Assay plates were accepted if they pass the following quality control standards: relative luciferase values were consistent throughout the entire experiment, Z-factor scores were greater than 0.6, untreated/vehicle controls behaved consistently on the plate.
# (§4) Growth Inhibition (GI) was used as a measure of cell viability. The cell viability of vehicle was measured at the time of dosing (T0) and after seventy two hours (T72). A GI reading of 0% represented no growth inhibition—cells treated with compound and T72 or T120 vehicle signals were matched. A GI 100% represented complete growth inhibition—cells treated by compound and To vehicle signals were matched. […] A GI 200% represents complete death of all cells in the culture well. Compounds reaching an activity plateau of GI 200% were considered cytotoxic. GI was calculated by applying the following test and equation: […]
# (§5) where T is the signal measure for a test article, V is the vehicle-treated control measure, and V0 is the vehicle control measure at time zero. This formula is derived from the Growth Inhibition calculation used in the National Cancer Institute's[sic] NCl[sic]−60 high throughput screen.
# (§6) Loewe Additivity model was used for measuring the effects of drug combinations. The Loewe additivity model is dose-based and applies only to the activity levels achieved by the single agents. Loewe Volume was used to assess the overall magnitude of the combination interaction in excess of the Loewe additivity model. Loewe Volume is particularly useful when distinguishing synergistic increases in a phenotypic activity (positive Loewe Volume) versus synergistic antagonisms (negative Loewe Volume). When antagonisms are observed, the Loewe Volume should be assessed to examine if there is any correlation between antagonism and a particular drug target-activity or cellular genotype. This model defines additivity as a non-synergistic combination interaction where the combination dose matrix surface should be indistinguishable from either drug crossed with itself. The calculation for additivity is:
# (§7) To measure combination effects in excess of Loewe additivity, a scalar measure to characterize the strength of synergistic interaction was devised and termed the Synergy Score. The Synergy Score was calculated as:
# (§8) Synergy Score=log fX log fYΣ max(0,Idata)(Idata−ILoewe)
# (§9) The fractional inhibition for each component agent and combination point in the matrix was calculated relative to the median of all vehicle-treated control wells. The Synergy Score equation integrates the experimentally-observed activity volume at each point in the matrix in excess of a model surface numerically derived from the activity of the component agents using the Loewe model for additivity. […]
# NU-DHL-1 cells = assay: as above; details: single agent
# Method: as §1, §2, §3, §4, §5, §6, §7, §8, §9
# OCI-Ly19 cells = assay: as above; details: single agent
# Method: as §1, §2, §3, §4, §5, §6, §7, §8, §9
# OCI-Ly3 cells = assay: as above; details: single agent
# Method: as §1, §2, §3, §4, §5, §6, §7, §8, §9
# Pfeiffer cells = assay: as above; details: single agent
# Method: as §1, §2, §3, §4, §5, §6, §7, §8, §9
# SU-DHL-10 cells = assay: as above; details: single agent; printed SU-DIAL-10
# Method: as §1, §2, §3, §4, §5, §6, §7, §8, §9
# [1] = tested on: panel of 8 DLBCL cell lines; assay: ATPLite growth inhibition assay across the cell line panel; details: single agent, FIG. 9
# Method: as §1, §2
# Cells were thawed from a liquid nitrogen preserved state. Once cells were expanded and divided at their expected doubling times, screening begins. Cells were seeded in growth media in black 384-well tissue culture treated plates at 500 cells per well (except where noted in Analyzer). […] These Tzero (T0) plates were read using ultra-sensitive luminescence on Envision Plate Readers. […] All data points were collected via automated processes; quality controlled; and analyzed using Horizon Discovery proprietary software. […]
# Growth Inhibition (GI) was used as a measure of cell viability. The cell viability of vehicle was measured at the time of dosing (T0) and after seventy two hours (T72). A GI reading of 0% represented no growth inhibition—cells treated with compound and T72 or T120 vehicle signals were matched. […] GI was calculated by applying the following test and equation: […]
smiles,measurement,setting,value
"CN1CCC(c2ccccc2CC(C)(C)Nc2nc(N3CCOCC3)nc(-n3c(C(F)F)nc4ccccc43)n2)CC1 [Compound I, 4-(2-(difluoromethyl)-1H-benzo[d]imidazol-1-yl)-N-(2-methyl-1-(2-(1-methylpiperidin-4-yl)phenyl)propan-2-yl)-6-morpholino-1,3,5-triazin-2-amine]",kind of growth inhibition effect (FIG. 10),DOHH-2 cells,cytotoxic effects
same,kind of growth inhibition effect (FIG. 10),NU-DHL-1 cells,sub-cytostatic effects
same,kind of growth inhibition effect (FIG. 10),OCI-Ly19 cells,cytotoxic effects
same,kind of growth inhibition effect (FIG. 10),OCI-Ly3 cells,cytotoxic effects
same,kind of growth inhibition effect (FIG. 10),Pfeiffer cells,sub-cytostatic effects
same,kind of growth inhibition effect (FIG. 10),SU-DHL-10 cells,sub-cytostatic effects
same,growth inhibition levels,[1]; all cell lines,> 50%
same,GI50,[1]; median across cell line panel,1730 nM
